Test results published in publication PMC10122656, “Siglec-6 mediates the uptake of extracellular vesicles through a noncanonical glycolipid binding pocket” (Nature Communications, 2023).
“And” between values parts separate entries of the source, which are not always exact repeats. Equal values may be shown once.

What was measured:
[1] = test system: untransfected (UT) CHO cells; assay: Cell assay (liposome/EV binding, flow cytometry); format: cell-based, Chinese Hamster;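 as to liposome binding, fluorescence signal (replicates): AF647 fluorescence intensity from 0.1 mol% AF647–PEG45–DSPE in liposomes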
Procedure: (§1) Stock lipids (DSPC, Cholesterol, PEG45–DSPE) solutions were prepared by solvating the lipids in chloroform. An appropriate volume of each lipid solution was transferred to a glass test tube to reach the desired mol% of the component. The chloroform was then removed under N2 gas to yield a lipid thin film. Once dry, 100 µL of DMSO was added to the lipid-containing test tube and then the functional lipids (ganglioside, AF647–PEG45–DSPE, Siglec ligand–PEG45–DSPE, pHrodo–PEG45–DSPE, NGL) was added from their respect DMSO stock solution. The lipid mixture was then stored at −80 °C until completely frozen at which point excess DMSO was removed via lyophilization. Dry lipids were then stored at −80 °C until they were extruded. Lipid suppliers can be found in Supplementary Table 4.
(§2) Dry lipids were then hydrated in 1 mL of PBS. The lipids were then sonicated in a bath sonicator in a cycle of 1 min on, 5 min off for a total of five cycles. Liposomes were then extruded using an Avanti mini extruder first using an 800 nm filter and then a 100 nm filter yielding liposomes that were 130 ± 35 nm (Supplementary Table 5) measured using a Malvern Panalytical Zetasizer Nano S. Liposomes were stored at 4 °C.
(§3) 200,000 cells/well were plated into a 96-well U-bottom microplate and centrifuged at 300 × g for 5 min. The cells were then resuspended in 50 µL of 50 µM liposome/50 µg/mL (protein concentration) of EV solution in DMEM F12 5% FBS and incubated at 37 °C for 30 min. Excess liposomes were then removed via centrifuged at 300 × g for 5 min followed by washing the cells with FACS solution. The cells were then resuspended in (1:250 V/V) anti-Siglec-flow buffer (1% V/V FBS, 500 µM, EDTA Hank’s Balanced Salt Solution pH 7.4), solution and left to rest on ice for 30 min. The cells were then centrifuged again at 300 × g for 5 min and the cells were resuspended in FACS buffer solution and were then ready for analysis by flow cytometry. Information regarding antibody clone, catalog number supplier, label isotype, and dilution can be found in Supplementary Table 6. The Siglec-positive cells were gated on for liposome-binding analysis (Supplementary Fig. 1b).
(§4) Flow cytometry measurements were collected on a 5-laser Fortessa X-20 (BD Bioscience). All the resulting data were analyzed using FlowJo (10.5.3) software (BD Biosciences).

Siglec-6-Fc WT = biological target: T1, Siglec-6-Fc WT (Homo sapiens, UniProt O43699); assay: Ganglioside ELISA; format: binding
T1 construct: the Siglecs as Fc chimeras; made in house; host or cells: WT CHO cells
Procedure: (§5) Siglec-Fc constructs designed by Rodrigues et al.[30] were used in this work. Siglec-Fc constructs were expressed using WT CHO cells in cell culture media as described above with 1% HEPES. Cells incubated as described above for one-week post confluency. The supernatant was harvested and stored at 4 °C.
(§6) The purification was heavily inspired by Rodrigues et al.[30]. The purification of the Siglec-Fcs from supernatant began with Ni^2+ affinity chromatography using an AKTA FPLC equipped with a HisTrap Excel column (GE). The column was equilibrated with fifteen column volumes (CVs) of equilibrium buffer (500 mM NaCl, 20 mM NaPO4H2, pH 7.4). The Siglec-Fc containing supernatant was then loaded in its entirety onto the column. The column was then washed with fifteen CVs of wash buffer (500 mM NaCl, 30 mM imidazole, 20 mM NaPO4H2, pH 7.4). The Siglec-Fc was then eluted in 20 in 1 mL fractions with twenty CVs of elution buffer (500 mM NaCl, 500 mM imidazole, 20 mM NaPO4H2, pH 7.4). Fractions containing Siglec-Fc were compiled and then prepared for the next stage of purification by diluting the fractions 1:4 with buffer W (100 mM Tris–HCl, 150 mM NaCl, 1 mM EDTA, pH 8.0). A Strep-Tactin column (IBA life sciences) was washed with fifteen CVs of buffer W. The Siglec-Fc-buffer W solution was then loaded in its entirety onto the column. The bound Siglec-Fc was then washed with fifteen CVs of buffer W. Siglec-Fc was eluted from the column with 15 column volumes of buffer E (100 mM Tris–HCl, 150 mM NaCl, 1 mM EDTA, 10 mM d-Desthiobiotin, pH 8.0). Fractions containing Siglec-Fc were pooled and dialyzed against PBS to remove any d-Desthiobiotin. After dialysis, Siglec-Fcs were concentrated using an ultra-centrifugal device (30 kDa MWCO) and aliquoted into 5 µg aliquots, and frozen. The Siglec-Fcs were then lyophilized overnight, and the lyophilized Siglec-Fcs were stored at −20 °C.
(§7) Our ELISA approach was carried out similarly to previous work by Rapoport[12] and Yamakawa[44]. Ganglioside ethanol solutions (10 µM) were prepared and then transferred in 50 µL increments to a 96-well microplate. The ethanol was removed by drying the plates overnight at room temperature. The plates were then washed with PBS, dried, and then blocked with 5% (m/V) BSA PBS for 1 h. The plates were then washed with PBS and then 2 µg/mL Siglec-Fc precomplexed to Strep-Tactin (2 Siglec-Fc:1 Strep-Tactin monomer) horse radish peroxidase was added to the microplate. The complex was incubated with the plate at room temperature for 2 h. The unbound complexes were then removed by washing in PBS and the plate was developed with Sera care TMB solution. The amount of binding was then quantified by using the background (microplate well with no ligand) subtracted absorbance at 450 nm using a Molecular Devices SpectraMAX ® iD5.

WT Siglec-1 CHO cells = biological target: T2, WT Siglec-1 CHO cells (Homo sapiens, UniProt Q9BZZ2); assay: Cell assay (liposome/EV binding, flow cytometry); format: cell-based; set-up: GM1 liposome binding to Siglec-1 CHO cells, flow cytometry (Fig. 1b) / Binding of liposomes with increasing ganglioside content against Siglec-1 CHO cells (Fig. 1c) / Liposome binding to Siglec-1-expressing CHO cells in the cell assay (Fig. 1f): unit not given here
T2 construct: expressed in transfected cells
Procedure: as §1, §2, §3, §4

Siglec-8 WT CHO cells = biological target: T3, Siglec-8 WT CHO cells (Homo sapiens, UniProt Q9NYZ4); assay: Cell assay (liposome/EV binding, flow cytometry); format: cell-based; details: Sig-8 WT; 3 mol% ganglioside liposomes; replicates
T3 construct: expressed in transfected cells
Procedure: as §1, §2, §3, §4

R122A Siglec-6-Fc = biological target: T4, R122A Siglec-6-Fc (Homo sapiens, UniProt O43699, R122A); assay: Ganglioside ELISA; format: binding; details: Figure 2c, replicates
T4 construct: the Siglecs as Fc chimeras; made in house; host or cells: WT CHO cells
Procedure: as §5, §6, §7

Siglec-1-Fc WT = Siglec-1-Fc WT (Homo sapiens, UniProt Q9BZZ2); assay: Ganglioside ELISA; format: binding; details: Figure 2c, replicates
Procedure: as §5, §6, §7

Siglec-7-Fc R124A = biological target: T5, Siglec-7-Fc R124A (Homo sapiens, UniProt Q9Y286, R124A); assay: Ganglioside ELISA; format: binding; details: Figure 2c, replicates
T5 construct: the Siglecs as Fc chimeras; made in house; host or cells: WT CHO cells
Procedure: as §5, §6, §7

Siglec-7-Fc WT = biological target: T6, Siglec-7-Fc WT (Homo sapiens, UniProt Q9Y286); assay: Ganglioside ELISA; format: binding; details: Figure 2c, replicates
T6 construct: the Siglecs as Fc chimeras; made in house; host or cells: WT CHO cells
Procedure: as §5, §6, §7

T3 sequence (Q9NYZ4 17-499): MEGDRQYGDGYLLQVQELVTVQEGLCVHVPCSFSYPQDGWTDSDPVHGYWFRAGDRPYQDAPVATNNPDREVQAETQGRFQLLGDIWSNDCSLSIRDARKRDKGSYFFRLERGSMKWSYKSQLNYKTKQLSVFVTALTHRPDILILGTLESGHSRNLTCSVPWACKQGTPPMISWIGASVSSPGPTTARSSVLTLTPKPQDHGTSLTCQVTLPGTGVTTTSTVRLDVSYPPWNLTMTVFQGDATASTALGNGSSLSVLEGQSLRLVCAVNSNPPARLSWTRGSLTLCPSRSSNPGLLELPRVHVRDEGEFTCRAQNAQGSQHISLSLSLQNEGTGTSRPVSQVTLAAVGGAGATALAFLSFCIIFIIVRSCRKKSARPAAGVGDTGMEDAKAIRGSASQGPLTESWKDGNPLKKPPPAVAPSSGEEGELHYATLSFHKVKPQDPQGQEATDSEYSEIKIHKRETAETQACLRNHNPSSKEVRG
T6 sequence (Q9Y286 19-353 limits assumed): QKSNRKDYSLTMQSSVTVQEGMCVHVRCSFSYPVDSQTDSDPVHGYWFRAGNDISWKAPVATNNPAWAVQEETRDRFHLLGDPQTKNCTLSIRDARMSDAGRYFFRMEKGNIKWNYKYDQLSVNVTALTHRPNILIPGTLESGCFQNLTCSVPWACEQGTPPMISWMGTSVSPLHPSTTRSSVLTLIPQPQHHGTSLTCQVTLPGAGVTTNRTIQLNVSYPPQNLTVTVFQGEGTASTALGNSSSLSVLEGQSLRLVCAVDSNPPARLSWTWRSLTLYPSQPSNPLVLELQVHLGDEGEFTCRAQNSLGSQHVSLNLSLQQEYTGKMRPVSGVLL
T2 sequence (Q9BZZ2 20-1709): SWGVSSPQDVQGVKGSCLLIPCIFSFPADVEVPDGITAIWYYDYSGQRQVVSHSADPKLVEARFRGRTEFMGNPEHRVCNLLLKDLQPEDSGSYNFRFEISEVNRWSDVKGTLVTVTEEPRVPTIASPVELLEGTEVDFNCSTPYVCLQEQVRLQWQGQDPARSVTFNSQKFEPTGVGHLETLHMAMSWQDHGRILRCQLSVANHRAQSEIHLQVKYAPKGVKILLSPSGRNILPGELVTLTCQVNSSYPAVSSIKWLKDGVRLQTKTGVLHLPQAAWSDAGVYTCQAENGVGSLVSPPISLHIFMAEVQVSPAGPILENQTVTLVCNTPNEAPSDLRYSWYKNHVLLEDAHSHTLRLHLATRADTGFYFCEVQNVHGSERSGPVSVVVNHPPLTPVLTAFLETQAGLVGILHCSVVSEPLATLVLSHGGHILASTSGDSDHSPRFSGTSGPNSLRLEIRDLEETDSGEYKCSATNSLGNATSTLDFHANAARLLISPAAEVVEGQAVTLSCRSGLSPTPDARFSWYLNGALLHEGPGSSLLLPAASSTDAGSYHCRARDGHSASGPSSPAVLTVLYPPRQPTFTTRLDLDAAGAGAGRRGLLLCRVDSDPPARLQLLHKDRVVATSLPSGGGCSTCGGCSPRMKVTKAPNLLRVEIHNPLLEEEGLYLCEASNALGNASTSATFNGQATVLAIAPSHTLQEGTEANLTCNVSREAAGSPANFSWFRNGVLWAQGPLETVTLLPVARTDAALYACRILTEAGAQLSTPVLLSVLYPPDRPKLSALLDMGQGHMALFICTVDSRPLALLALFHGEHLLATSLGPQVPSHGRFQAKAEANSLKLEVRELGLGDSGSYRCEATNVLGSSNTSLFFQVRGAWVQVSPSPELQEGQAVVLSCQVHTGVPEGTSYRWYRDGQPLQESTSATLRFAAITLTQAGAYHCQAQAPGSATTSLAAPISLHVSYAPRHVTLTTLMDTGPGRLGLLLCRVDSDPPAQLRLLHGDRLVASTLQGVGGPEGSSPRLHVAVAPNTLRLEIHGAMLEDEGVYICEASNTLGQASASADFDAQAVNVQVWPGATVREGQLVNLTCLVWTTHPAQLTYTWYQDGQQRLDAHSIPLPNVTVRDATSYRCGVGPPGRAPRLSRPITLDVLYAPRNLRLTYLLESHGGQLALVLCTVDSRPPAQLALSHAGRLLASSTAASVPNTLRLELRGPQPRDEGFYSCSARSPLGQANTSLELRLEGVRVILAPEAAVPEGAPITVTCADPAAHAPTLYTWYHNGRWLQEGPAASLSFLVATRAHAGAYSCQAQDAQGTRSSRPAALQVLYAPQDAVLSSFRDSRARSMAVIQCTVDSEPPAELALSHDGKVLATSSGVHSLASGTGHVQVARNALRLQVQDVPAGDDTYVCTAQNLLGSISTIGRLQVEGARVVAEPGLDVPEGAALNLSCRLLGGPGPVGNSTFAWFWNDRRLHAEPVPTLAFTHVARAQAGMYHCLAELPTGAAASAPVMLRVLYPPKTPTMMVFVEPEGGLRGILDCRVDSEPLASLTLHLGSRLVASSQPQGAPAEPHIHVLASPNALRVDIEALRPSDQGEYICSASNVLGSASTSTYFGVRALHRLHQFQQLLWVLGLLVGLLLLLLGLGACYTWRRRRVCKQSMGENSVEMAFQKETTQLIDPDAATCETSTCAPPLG
Siglec-1-Fc WT, sequence (Q9BZZ2 20-136 limits assumed): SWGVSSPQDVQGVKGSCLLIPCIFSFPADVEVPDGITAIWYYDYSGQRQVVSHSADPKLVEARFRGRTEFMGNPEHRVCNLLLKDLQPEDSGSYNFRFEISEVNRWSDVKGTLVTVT
T4 sequence (O43699 27-347 R122A limits assumed): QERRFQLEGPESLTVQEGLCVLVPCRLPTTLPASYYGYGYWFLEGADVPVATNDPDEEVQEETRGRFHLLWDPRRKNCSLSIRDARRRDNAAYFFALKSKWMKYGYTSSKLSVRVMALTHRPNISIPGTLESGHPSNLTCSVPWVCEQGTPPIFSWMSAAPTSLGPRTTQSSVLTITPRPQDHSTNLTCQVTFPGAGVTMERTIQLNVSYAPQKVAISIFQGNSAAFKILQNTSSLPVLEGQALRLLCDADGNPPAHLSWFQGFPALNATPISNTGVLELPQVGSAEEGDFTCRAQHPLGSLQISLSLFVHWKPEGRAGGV
T5 sequence (Q9Y286 19-353 R124A limits assumed): as the sequence (Q9Y286 19-353 limits assumed) above, with R106A counted along it
T1 sequence (O43699 27-347 limits assumed): as the sequence (O43699 27-347 R122A limits assumed) above, with A96R counted along it

CCCCCCCCCCCCCCCCOCC(COCCCCCCCCCCCCCCCC)OCc1cn(CCO[C@@H]2O[C@H](CO)[C@@H](O[C@@H]3O[C@H](CO)[C@H](O)[C@H](O[C@]4(C(=O)O)C[C@H](O)[C@@H](NC(C)=O)[C@H]([C@H](O)[C@H](O)CO)O4)[C@H]3O)[C@H](O)[C@H]2O)nn1 [GM3-DAG]
liposome binding, fluorescence signal (replicates) ([1]; sheet Figure S22b, CHO): 267 and 269 and 241 and 218
liposome binding, fluorescence signal (replicates) ([1]; sheet Figure S26a, 3% GM3-DAG liposomes, Untrans.): 298 and 293 and 301 and 291
liposome binding, fluorescence signal (replicates) ([1]; sheet Figure S28b, 3% GM3-DAG liposomes, UT): 268 and 273 and 248 and 260
liposome binding, fluorescence signal (replicates) ([1]; sheet Figure S26d, CHO): 38 and 35 and 41

CCCCCCCCCCCCCCCCOCC(COCCCCCCCCCCCCCCCC)OCc1cn(CCO[C@@H]2O[C@H](CO)[C@@H](O[C@@H]3O[C@H](CO)[C@H](O)[C@H](O[C@]4(C(=O)O)C[C@H](O)[C@@H](NC(C)=O)[C@H]([C@H](O)[C@H](O)CO)O4)[C@H]3O)[C@H](O)[C@H]2O)nn1 [nGL 5]
fold difference in binding to Siglec-6 between 5 and GM3 (Siglec-6-Fc WT; by ELISA): 1.5 fold

GD1a
log10(MFI AF647) of GLL relative to log10(MFI AF647) of the same GLL against UT CHO cells (Fig. 2a) ([1]; UT, 3 mol% ganglioside liposomes, replicates): 0.01 and -0.05 and 0 and 0.04
Binding of liposomes with increasing ganglioside content against Siglec-1 CHO cells (Fig. 1c) (WT Siglec-1 CHO cells; 0.000187 Ligand/nm2, replicates): -0.01
Binding of liposomes with increasing ganglioside content against Siglec-1 CHO cells (Fig. 1c) (WT Siglec-1 CHO cells; 0.00933 Ligand/nm2, replicates): 0.01
Binding of liposomes with increasing ganglioside content against Siglec-1 CHO cells (Fig. 1c) (WT Siglec-1 CHO cells; 0.0187 Ligand/nm2, replicates): 0.5 and 0.49 and 0.48 and 0.51
Binding of liposomes with increasing ganglioside content against Siglec-1 CHO cells (Fig. 1c) (WT Siglec-1 CHO cells; 0.0933 Ligand/nm2, replicates): 0.26 (2×) and 0.28 and 0.3
Binding of liposomes with increasing ganglioside content against Siglec-1 CHO cells (Fig. 1c) (WT Siglec-1 CHO cells; 0.187 Ligand/nm2, replicates): 0.19 (3×) and 0.2
Binding of liposomes with increasing ganglioside content against Siglec-1 CHO cells (Fig. 1c) (WT Siglec-1 CHO cells; 0.373 Ligand/nm2, replicates): 0.1 (2×) and 0.09 (2×)
log10(MFI AF647) of GLL relative to log10(MFI AF647) of the same GLL against UT CHO cells (Fig. 2a) (WT Siglec-1 CHO cells; Sig-1 WT, 3 mol% ganglioside liposomes, replicates): 0.86 (2×) and 0.89 and 0.85
ganglioside content threshold above which GLL binding to Siglec-1 CHO cells decreased (WT Siglec-1 CHO cells; ganglioside titrated in GLLs): 1–3 mol%
log10(MFI AF647) of GLL relative to log10(MFI AF647) of the same GLL against UT CHO cells (Fig. 2a) (Siglec-8 WT CHO cells): -0.17 and -0.14 and -0.12 and -0.13
ganglioside ELISA signal, Siglec-6 R (R122A Siglec-6-Fc): 0.08 and 0.06 and 0.05
ganglioside ELISA signal, Siglec-1 WT (Siglec-1-Fc WT): 0.75 and 1.01 and 0.87
ganglioside ELISA signal, Siglec-6 WT (Siglec-6-Fc WT; Figure 2c, replicates): -0.08 and 0.02 and 0.01 and -0.06
ELISA recognition of adsorbed ganglioside by Siglec-6 (in words) (Siglec-6-Fc WT; ganglioside adsorbed to microplate, outside a bilayer): did not recognize
ganglioside ELISA signal, Siglec-7 R (Siglec-7-Fc R124A): 0.05 and 0 and -0.01
ganglioside ELISA signal, Siglec-7 WT (Siglec-7-Fc WT): 0.27 and 0.32 and 0.24 and 0.37
